What all share (assay): growth of human tumour cells (NCI), 48 h
The subject of experiment [1] is SR.
The subject of experiment [2] is IGROV-1.
The test system of experiment [3] is OVCAR-5.
The test system of experiment [4] is HCC 2998.
Experiment [5] has as its system MDA-MB-435.
Experiment [6] has as its system SF-295.
For experiment [7], the system named is SN12C.
The subject of experiment [8] is OVCAR-4.
Experiment [9] deals with RPMI-8226.
Experiment [10] concerns OVCAR-8.
In experiment [11] the test system is M14.
Experiment [12] relates to U-251.
In experiment [13] the test system is MDA-N.
Experiment [14] deals with MCF7.
Experiment [15] concerns NCI-H226.
Experiment [16] deals with 786-0.
The test system of experiment [17] is NCI-H23.
Experiment [18] relates to CAKI-1.
The subject of experiment [19] is UACC-257.
Experiment [20] deals with UO-31.

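The compound was tested at five concentrations on cells cultured in 96-well plates, with a 48-hour exposure period. GI50 is the concentration that inhibits growth by half.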 The source made the active and inactive calls. Rule as the data show it: active = GI50 up to about 1.1 µM and inactive = higher.

Results on seven compounds are retold here after ChEMBL document CHEMBL1201862, “PubChem BioAssay data set” (2004).

As to `COC(=O)/C=C1\C(=O)N(C(C)=O)c2ccc(Br)cc21`, the GI50 in experiment [1] is 2.8 µM (inactive); in [2], 7.6 µM (inactive); in experiment [3], 17.3 µM (inactive); in experiment [4], 17.7 µM (inactive); in experiment [5] it was 9.35 µM (inactive); in [6] it was 16.9 µM (inactive). Also, the GI50 in experiment [7] is 5.71 µM (inactive); in experiment [8], 13.2 µM (inactive); in experiment [9], 2.66 µM (inactive); in [10], 8.43 µM (inactive); in [11] it was 10.4 µM (inactive); in experiment [12], 8.05 µM (inactive). Also, the GI50 in experiment [13] was 11 µM (inactive); in experiment [14], 4.5 µM (inactive); in [15] it was 15.1 µM (inactive); in experiment [16] it was 5.46 µM (inactive); in experiment [17], 15.3 µM (inactive); in [18] it was 21.3 µM (inactive). The GI50 is 10.7 µM (inactive) in [19] and 0.69 µM (active) in experiment [20].
Regarding `CCOC(=O)[C@H]1C[C@]23CN(C(=O)OC(C)(C)C)CC[C@H]2CCC2(SCCCS2)[C@@H]3N1C`, the GI50 is 24 µM (inactive) in experiment [1]; 49.9 µM (inactive) in [2]; 50.5 µM (inactive) in experiment [3]; 22.8 µM (inactive) in experiment [4]; 37.7 µM (inactive) in [5]; 38.3 µM (inactive) in experiment [6]. The GI50 was 21.3 µM (inactive) in [7]; 16 µM (inactive) in experiment [8]; 20.4 µM (inactive) in experiment [9]; 37.8 µM (inactive) in experiment [10]; 30.8 µM (inactive) in experiment [11]; 34.4 µM (inactive) in experiment [12]. Besides, the GI50 in experiment [13] is 30.1 µM (inactive); in [14] it was 38.7 µM (inactive); in experiment [15], 29.6 µM (inactive); in experiment [16], 34.5 µM (inactive); in experiment [17] it was 42 µM (inactive); in [18], 33.8 µM (inactive). Moreover, the GI50 in experiment [19] is 25.6 µM (inactive); in experiment [20], 37.8 µM (inactive).
Regarding `O=C1Oc2ccccc2C(=O)/C1=C\Nc1nc(-c2ccccc2)cs1`, the GI50 in experiment [1] is 2.01 µM (inactive); in experiment [2] it was 12.3 µM (inactive); in experiment [3] it was 19 µM (inactive); in experiment [4] it was 51.4 µM (inactive); in [5], 7.38 µM (inactive); in experiment [6], 25.9 µM (inactive). Besides, the GI50 is 7.08 µM (inactive) in experiment [7]; 58.7 µM (inactive) in experiment [8]; 4.47 µM (inactive) in experiment [9]; 8 µM (inactive) in experiment [10]; 4.53 µM (inactive) in experiment [11]; 11.8 µM (inactive) in experiment [12]. Further, the GI50 was 4.85 µM (inactive) in experiment [13]; 4.07 µM (inactive) in experiment [14]; 3.24 µM (inactive) in [15]; 5.83 µM (inactive) in experiment [16]; 16.7 µM (inactive) in experiment [17]; 3.76 µM (inactive) in experiment [18]. The figures for the GI50 in [19] and in experiment [20] were 10.5 µM (inactive) and 7.8 µM (inactive), respectively.
For `Cn1cnc([N+](=O)[O-])c1Sc1nnc(-c2cccnc2)n1C`, the GI50 is 15.3 µM (inactive) in [1]; 68.5 µM (inactive) in experiment [2]; 67.3 µM (inactive) in [3]; 30.9 µM (inactive) in experiment [4]; 14.9 µM (inactive) in experiment [5]; > 100 µM (inactive) in [6]. The GI50 is 25.4 µM (inactive) in [7]; 22.2 µM (inactive) in experiment [8]; 18.1 µM (inactive) in [9]; 21.3 µM (inactive) in [10]; 16.8 µM (inactive) in experiment [11]; 43.6 µM (inactive) in [12]. Moreover, the GI50 in experiment [13] is 19.5 µM (inactive); in experiment [14] it was 23.8 µM (inactive); in [15] it was > 66.4 µM (inactive); in experiment [16], 18.5 µM (inactive); in experiment [17], 23.1 µM (inactive); in experiment [18], 25.4 µM (inactive). Besides, the GI50 in experiment [19] was 13.9 µM (inactive); in experiment [20], 32.4 µM (inactive).
Take `Cc1ccc2nc(N/N=C/c3cccc(C)n3)cc(C)c2c1`: the GI50 in experiment [1] was 16.4 µM (inactive); in [2] it was 13.9 µM (inactive); in experiment [3], 14.3 µM (inactive); in experiment [4], 12.6 µM (inactive); in experiment [5], 15.7 µM (inactive); in experiment [6], 15.4 µM (inactive). The GI50 in [7] is 17.2 µM (inactive); in experiment [8] it was 16.6 µM (inactive); in experiment [9], 14 µM (inactive); in experiment [10], 20.5 µM (inactive); in experiment [11], 24.2 µM (inactive); in experiment [12] it was 16.9 µM (inactive). The GI50 in experiment [13] was 16.3 µM (inactive); in experiment [14], 13.6 µM (inactive); in [15], 24.7 µM (inactive); in experiment [16], 16.2 µM (inactive); in experiment [17], 18.8 µM (inactive); in experiment [18] it was 16.8 µM (inactive). Besides, the GI50 in [19] is 16.9 µM (inactive); in [20] it was 19.7 µM (inactive).
Regarding `CSc1c(C#N)c(N)n(-c2ccc(Cl)cc2)c(=O)c1C#N`, the GI50 in [1] is 42.8 µM (inactive); in [2], > 100 µM (inactive); in experiment [3] it was > 100 µM (inactive); in experiment [4] it was > 100 µM (inactive); in experiment [5], > 100 µM (inactive); in [7], > 100 µM (inactive). For the same compound, the GI50 in [8] is > 100 µM (inactive); in [9] it was > 100 µM (inactive); in experiment [10] it was 67.8 µM (inactive); in [11] it was > 100 µM (inactive); in [12] it was > 100 µM (inactive); in experiment [13], > 100 µM (inactive). Besides, the GI50 in experiment [14] was > 100 µM (inactive); in [15], 59.7 µM (inactive); in experiment [16] it was > 100 µM (inactive); in experiment [17] it was > 100 µM (inactive); in [18] it was > 100 µM (inactive); in experiment [19], > 100 µM (inactive). The GI50 in experiment [20] was > 100 µM (inactive).
Consider `C=CC(CCc1ccc(C(=O)OCC)cc1)c1c(N)nc(N)[nH]c1=O` (stereo not drawn), for which the GI50 is > 100 µM (inactive) in [1]; > 100 µM (inactive) in experiment [2]; > 100 µM (inactive) in [4]; > 100 µM (inactive) in [5]; 57.8 µM (inactive) in experiment [6]; > 100 µM (inactive) in [7]. Besides, the GI50 in experiment [8] is 27.2 µM (inactive); in experiment [9], 44.8 µM (inactive); in experiment [10], 95.1 µM (inactive); in [11], > 100 µM (inactive); in experiment [12] it was > 100 µM (inactive); in experiment [13], 76.6 µM (inactive). The GI50 in [14] is 87.7 µM (inactive); in [15], 84.9 µM (inactive); in [16], > 100 µM (inactive); in [17], 91.8 µM (inactive); in [18], 86.3 µM (inactive); in experiment [19] it was 35.1 µM (inactive). The GI50 in experiment [20] is 43.7 µM (inactive).
